Source: patent US4616003A, “N^6 -dihydroxypropyladenosines” (Warner-Lambert Company, priority 1985, dated 1986)
pIC50: −log10 of the molar value. Like-named read-outs stand apart in the source and are kept apart here.

Columns and labels:
[1] = test system: Swiss-Webster male mice; test: Mouse Activity and Screen Test (MAST): inhibition of spontaneous locomotor activity; type: in vivo; details: 1 hour prior to testing
Experimental: Nine unfasted Swiss-Webster male mice weighing 20-30 g are equally divided into three groups for each drug dose to be tested. That is, data for each dose level was generated by three separate groups of three mice each. A minimum of three dose levels (10, 30, and 100 mg/kg) are tested for each drug. Treatments are administered intraperitoneally one hour prior to testing. All dosages are calculated as parent compound and given in volumes of 10 ml/kg. Compounds are dissolved or suspended in 0.2% Methocel. Control animals are injected with Methocel. Immediately following the screen test, the final phase of testing is initiated by placing each group of three mice in one actophotometer (Life Sciences, 22, 1067-1076, 1978). The actophotometer consists of a cylindrical chamber whose center is occupied by another cylinder which contains the illumination for six photocells located on the perimeter of the chamber. Six light-beam interruptions equal one count. Locomotor activity is recorded by computer at ten minute intervals for 60 minutes. Data: The data obtained from the screen test are expressed as percent of mice falling off the screen. Data derived from locomotor activity of drug treated mice are compared to the activity of vehicle treated animals and are expressed as percent inhibition of spontaneous locomotion. All percentages reported for inhibition of locomotion (LI) are based upon data accumulated for one hour. Both phases of testing are graded: A=60-100%; C=31-59%; and N=0-30%. An overall dose rating is obtained by the following criteria: […]

[2] = target: T1, adenosine A2 receptor (Rattus norvegicus, UniProt P30543); test: Adenosine A2 receptor binding (RBA-2), displacement of [3H]NECA
T1 construct: Brains were thawed and then kept on ice while the striata were dissected out; tissue Pel-Freez (Rogers, Ark.); host or cells: rat striatum (Sprague-Dawley brains; Long-Evans gave essentially identical results)
Experimental: Brains from 200-500 g mixed sex Sprague-Dawley rats were purchased from Pel-Freez (Rogers, Ark.). […] Brains were thawed and then kept on ice while the striata were dissected out. […] The suspension was centrifuged at 50,000 xg for ten minutes, the supernatant discarded, the pellet resuspended in 10 vol ice-cold Tris as above, recentrifuged, resuspended at 1 g/5 ml, and stored in plastic vials at -70° C. […] When needed, tissue was thawed at room temperature, disrupted in a Polytron, and kept on ice until used.
All incubations were for 60 minutes at 25° C. in 12×75 mm glass tubes containing 1 ml Tris with 5 mg original tissue weight of rat weight of rat striatal membranes, 4 nM [^3 H]-N-ethyl adenosine-5'-carboxamide ([^3 H]NECA), 50 nM N^6 -cyclopentyladenosine (to eliminate A1 receptor binding), 10 mM MgCl2, 0.1 units/ml of adenosine deaminase and 1% dimethylsulfoxide. N^6 -Cyclopentyladenosine was dissolved at 10 mM in 0.02N HCl and diluted in Tris. […] Test compounds were dissolved at 10 mM in dimethylsulfoxide on the same day as the experiment, and diluted in dimethylsulfoxide to 100× the final incubation concentration. […] [^3 H]NECA was diluted to 40 nM in Tris. The membrane suspension (5 mg/0.79 ml) contained sufficient MgCl2 and adenosine deaminase to give 10 mM and 0.1 units/ml, respectively, final concentration in the incubation. […] After all additions, the rack of tubes was vortexed, and the tubes were then incubated for 60 min at 25° C. in a shaking water bath. The rack of tubes was vortexed an additional time halfway through the incubation.
Incubations were terminated by filtration through 2.4 cm GF/B filters under reduced pressure. Each tube was filtered as follows: the contents of the tube were poured onto the filter, 4 ml of ice-cold Tris were added to the tube and the contents poured onto the filter, and the filter was washed twice with 4 ml of ice-cold Tris. The filtration was complete in about twelve seconds.
Nonspecific binding was defined as binding in the presence of 100 μM N^6 -cyclopentyladenosine, and specific binding was defined as total binding minus nonspecific binding. The IC50 was calculated by weighted nonlinear least squares curve-fitting to the mass-action equation. [formula] where Y is cpm bound
T is cpm total binding without drug
S is cpm specific binding without drug
D is the concentration of drug and
K is the IC50 of the drug
Weighting factors were calculated under the assumption that the standard deviation was proportional to the predicted value of Y. Nonspecific binding was treated as a very large (infinite) concentration of drug in the computer analysis.

[3] = 4 nM [3H]NECA, 50 nM N6-cyclopentyladenosine, rat striatal membranes, read-out: RBA-2 (IC50, adenosine A2 receptor affinity)

T1 sequence (P30543 whole entry): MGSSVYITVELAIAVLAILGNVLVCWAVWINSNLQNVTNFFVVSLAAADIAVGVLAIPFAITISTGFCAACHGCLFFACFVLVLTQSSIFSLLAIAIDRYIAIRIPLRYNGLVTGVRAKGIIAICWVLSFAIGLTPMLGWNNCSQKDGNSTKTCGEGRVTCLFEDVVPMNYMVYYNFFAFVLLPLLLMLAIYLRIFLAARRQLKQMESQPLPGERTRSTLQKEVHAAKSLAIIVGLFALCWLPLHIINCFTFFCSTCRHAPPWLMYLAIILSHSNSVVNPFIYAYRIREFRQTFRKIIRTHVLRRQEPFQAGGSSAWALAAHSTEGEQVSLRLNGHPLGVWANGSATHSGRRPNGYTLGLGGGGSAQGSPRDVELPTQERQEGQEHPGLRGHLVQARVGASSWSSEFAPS

pIC50 [2, 3]	Compound	Inhibition of Mouse Locomotor Activity ([1]; 0.3 mg/kg i.p.)	Inhibition of Mouse Locomotor Activity ([1]; 1.0 mg/kg i.p.)	Inhibition of Mouse Locomotor Activity ([1]; 3.0 mg/kg i.p.)	Inhibition of Mouse Locomotor Activity ([1]; 10 mg/kg i.p.)	Inhibition of Mouse Locomotor Activity ([1]; 30 mg/kg i.p.)	Inhibition of Mouse Locomotor Activity ([1]; 100 mg/kg i.p.)	Inhibition of Mouse Locomotor Activity ([1]; 0.1 mg/kg i.p.)	Inhibition of Mouse Locomotor Activity ([1]; 0.03 mg/kg i.p.)	pIC50 [2]
4.62	CC1(C)OCC(CNc2ncnc3c2ncn3[C@@H]2O[C@H](CO)[C@@H](O)[C@H]2O)O1 (stereo partly drawn) [Example 4, (R,S)-N^6-[2,3Dihydroxypropylisopropylidene]adenosine]	6%	27%	23%	96%	93%	99%			
4.82	CC1(C)OC[C@@H](CNc2ncnc3c2ncn3[C@@H]2O[C@H](CO)[C@@H](O)[C@H]2O)O1 [Example 5, (R)-N^6-[2,3-Dihydroxypropylisopropylidene]-adenosine]	40%	39%	69%	48%	98%				
	OC[C@@H](O)CNc1ncnc2c1ncn2[C@@H]1O[C@H](CO)[C@@H](O)[C@H]1O [Example 3]	0%	92%	97%	97%	100%		-18%	-19%	4.70
4.12	Nc1nc(NCC(O)CO)c2ncn([C@@H]3O[C@H](CO)[C@@H](O)[C@H]3O)c2n1 (stereo partly drawn) [Example 8]	56%	98%	98%	99%	100%	99%			

Compound	pIC50 [2, 3]	Inhibition of Mouse Locomotor Activity ([1]; 0.3 mg/kg i.p.)	Inhibition of Mouse Locomotor Activity ([1]; 1.0 mg/kg i.p.)	Inhibition of Mouse Locomotor Activity ([1]; 3.0 mg/kg i.p.)	Inhibition of Mouse Locomotor Activity ([1]; 10 mg/kg i.p.)	Inhibition of Mouse Locomotor Activity ([1]; 30 mg/kg i.p.)	Inhibition of Mouse Locomotor Activity ([1]; 100 mg/kg i.p.)	Inhibition of Mouse Locomotor Activity ([1]; 0.1 mg/kg i.p.)	Inhibition of Mouse Locomotor Activity ([1]; 0.03 mg/kg i.p.)	pIC50 [2]
OCC(O)CNc1ncnc2c1ncn2[C@@H]1O[C@H](CO)[C@@H](O)[C@@H]1O (stereo partly drawn) [Example 1, (R,S)-N^6 [2,3-Dihydroxypropyl]adenosine]	4.72	96%	97%	99%	100%	100%	99%	46%		
